# Source: patent US7601834B2, “Compositions and methods of reducing side effects and toxicity of methotrexate when given as orotate derivatives” (SavviPharm Inc, priority 2005, dated 2009)
# Where two headings read alike, the source gives them in different places.
# Tests used:
# [1] = Pharmacokinetic analysis and oral bioavailability in rats; type: in vivo, male Spagrue-Dawley rats; conditions: rat; for AUC: estimated for infinity; for half-life: read-out: Elim Half-Life (converted)
# Procedure: A PK study was done in rats to determine the PK profile and oral bioavailability of methotrexate and compared this to the orotate salt of methotrexate. This was done in male Spagrue-Dawley rats. This compound was administered intravenously (IV; 10 mg/kg; for methotrexate and 15.7 mg/kg for methotrexate orotate 1 mL/kg; vehicle 1% NaHCO3 in 0.9% saline) or via oral gavage (PO; 100 mg/kg methotrexate; 157 mg/kg methotrexate orotate; vehicle 1% NaHCO3 in 0.9% saline) and the plasma levels of compound in the plasma were determined at specified times. By calculating the ratio of the area under the curve for the compound concentrations (estimated for infinity as is typically done) for PO vs IV, percent oral bioavailability can be determined. Of course normalization for the different doses given IV vs PO was taken into account for determination of oral bioavailability.
# [2] = test system: DU-145 human prostate tumor xenografts
# Procedure: The purpose of the experiment was to evaluate the antitumor efficacy of methotrexate (MTX) and its orotate derivative (MTX orotate) against subcutaneously (SC) implanted DU=145 human prostate tumor xenografts in male athymic NCr-nu/nu mice.
# Drug formulation—2.7 mg/mL solution of MTX (Sigma-Aldrich, catalog no. M9929, lot no. 114K1572 used on days 15 and 19, and catalog no. A6770, lot no. 21H0324 used on days 19, 23 and 35) was formulated fresh on each day of treatment in 2% sodium bicarbonate in water for injection (WFI). The 2.7 mg/mL solution was diluted with sodium bicarbonate in WFI to 1.8 and 1.2 mg/mL.
# A 4.25 mg/mL solution of MTX orotate was formulated fresh on each day of treatment in 2% bicarbonate in WFI to 2.83 and 1.89 mg/mL. Control group was treated with 2% sodium bicarbonate in WFI. Both compounds and the vehicle were administered to mice by exact individual animal's body weight on each day of treatment with the injection volume being 0.1 mL/10 g of body weight.
# Seven groups of 10 mice per group were injected intraperitoneally (ip) once every four days for a total of 3 injections (q4d×3, Days 15, 19, 23 and 35) as follows: Group 1—2% sodium bicarbonate, Groups 2, 3 and 4 with MTX at 27, 18, and 12 mg/kg/dose, respectively. Groups 5, 6, and 7 were treated with MTX orotate at dosages 42.5, 28.3 and 18.9 mg/kg/dose respectively (based on MW of MTX=454.4 and MW of MTX orotate=714.7).
# Tumors were measured and volume determined using formula L×W^2/2=mm^3; and weight calculated assuming 1 mm^3=1 mg. The study was terminated 47 days after tumor implantation
# [3] = in vivo; cited from earlier work
# [4] = IV, 15.7 mg/kg methotrexate orotate
# [5] = PO, 157 mg/kg methotrexate orotate
# [6] = male, Sprague-Dawley, plasma, IV, 10 mg/kg methotrexate
# [7] = male, Sprague-Dawley, plasma, PO, 100 mg/kg methotrexate
smiles,measurement,setting,value
"CN(Cc1cnc2nc(N)nc(N)c2n1)c1ccc(C(=O)NC(CCC(=O)O)C(=O)[O-])cc1.O=C(O)c1cc(=O)[nH]c(=O)[nH]1.[Na+] (stereo not drawn) [Methotrexate Orotate, sodium methotrexate orotate]",Apparent volume of distribution and plasma clearance rate relative to methotrexate,[1]; IV,higher
same,Area under the curve (AUC) relative to methotrexate,[1]; IV,slightly lower
same,Cl,[1]; [4],263.08 ± 17.08 mL/min/kg
same,Cmax plasma,[1]; [4],2843 ± 121 ng/mL
same,Elim Half-Life,[1]; [4],28.2 ± 0 min
same,Tmax,[1]; [4],6 ± 0 min
same,Vd,[1]; [4],10.804 ± 0.733 L/kg
same,AUC,[1]; [4],792 ± 62 ng·mL·h
same,Elimination half-life relative to methotrexate,[1]; PO,shorter
same,Rate of getting into the plasma relative to methotrexate,[1]; PO,somewhat slower
same,% bioavailability (oral),"[1]; PO 157 mg/kg vs IV 15.7 mg/kg methotrexate orotate, dose-normalized AUC ratio",14%
same,Cl,[1]; [5],3233.05 ± 518.18 mL/min/kg
same,Cmax plasma,[1]; [5],59 ± 20 ng/mL
same,Elim Half-Life,[1]; [5],1060 ± 480 min
same,Tmax,[1]; [5],96 ± 24 min
same,Vd,[1]; [5],3345.18 ± 472.947 L/kg
same,AUC,[1]; [5],1140 ± 390 ng·mL·h
same,Tumor weight - inhibition of growth of DU-145 xenografts,[2]; MTX orotate highest dose (42.5 mg/kg/dose) ip q4d,marginal inhibition
same,Tumor weight - tumor inhibition,"[2]; MTX orotate two low doses (28.3 and 18.9 mg/kg/dose) ip q4d, SC DU-145 xenografts",no effect
same,Tumor growth compared with MTX,"[2]; ip, equivalent dosages, SC DU-145 xenografts",no significant difference
"CN(Cc1cnc2nc(N)nc(N)c2n1)c1ccc(C(=O)N[C@@H](CCC(=O)O)C(=O)O)cc1 [Methotrexate, methotrexate]",Cmax,[1]; [6],3780 ± 636 ng/mL
same,clearance,[1]; [6],157 mL/min/kg
same,half-life,[1]; [6],26.4 ± 0.6 min
same,Tmax,"[1]; male, Sprague-Dawley, plasma, IV, 10 mg/kg methotrexate, read-out: Tmax",6 min
same,Vd,"[1]; male, Sprague-Dawley, plasma, IV, 10 mg/kg methotrexate, read-out: Vd",6.12 ± 0.671 L/kg
same,bioavailability,"[1]; male, Sprague-Dawley, plasma, PO 100 mg/kg vs IV 10 mg/kg methotrexate, dose-normalized AUC ratio",6%
same,Cmax,[1]; [7],51 ± 12 ng/mL
same,half-life,[1]; [7],1880 ± 924 min
same,Tmax,"[1]; male, Sprague-Dawley, plasma, PO, 100 mg/kg methotrexate, read-out: Tmax",54 ± 36 min
same,AUC,"[1]; IV, 10 mg/kg methotrexate",1151 ± 142 ng·mL·h
same,Cl,"[1]; PO, 100 mg/kg methotrexate",2537.12 ± 257.27 mL/min/kg
same,Vd,"[1]; PO, 100 mg/kg methotrexate",6811.662 ± 3415.946 L/kg
same,AUC,"[1]; PO, 100 mg/kg methotrexate",671 ± 70 ng·mL·h
same,Tumor weight - tumor inhibition,"[2]; MTX 27, 18 and 12 mg/kg/dose ip q4d, SC DU-145 xenografts",no effect
same,Bound to plasma proteins,[3],approximately 50%
same,"Elimination from plasma, gamma half life",[3],1620 min
